What follows are molecules tested against S. aureus GyrB ATPase (Staphylococcus aureus, UniProt P0A0K8) (assay: S. aureus GyrB ATPase inhibition (ammonium molybdate/malachite green phosphate detection)). Settings: compound concentration of 1 μM (unless otherwise noted).
Sequence of S. aureus GyrB ATPase (P0AES4 whole entry): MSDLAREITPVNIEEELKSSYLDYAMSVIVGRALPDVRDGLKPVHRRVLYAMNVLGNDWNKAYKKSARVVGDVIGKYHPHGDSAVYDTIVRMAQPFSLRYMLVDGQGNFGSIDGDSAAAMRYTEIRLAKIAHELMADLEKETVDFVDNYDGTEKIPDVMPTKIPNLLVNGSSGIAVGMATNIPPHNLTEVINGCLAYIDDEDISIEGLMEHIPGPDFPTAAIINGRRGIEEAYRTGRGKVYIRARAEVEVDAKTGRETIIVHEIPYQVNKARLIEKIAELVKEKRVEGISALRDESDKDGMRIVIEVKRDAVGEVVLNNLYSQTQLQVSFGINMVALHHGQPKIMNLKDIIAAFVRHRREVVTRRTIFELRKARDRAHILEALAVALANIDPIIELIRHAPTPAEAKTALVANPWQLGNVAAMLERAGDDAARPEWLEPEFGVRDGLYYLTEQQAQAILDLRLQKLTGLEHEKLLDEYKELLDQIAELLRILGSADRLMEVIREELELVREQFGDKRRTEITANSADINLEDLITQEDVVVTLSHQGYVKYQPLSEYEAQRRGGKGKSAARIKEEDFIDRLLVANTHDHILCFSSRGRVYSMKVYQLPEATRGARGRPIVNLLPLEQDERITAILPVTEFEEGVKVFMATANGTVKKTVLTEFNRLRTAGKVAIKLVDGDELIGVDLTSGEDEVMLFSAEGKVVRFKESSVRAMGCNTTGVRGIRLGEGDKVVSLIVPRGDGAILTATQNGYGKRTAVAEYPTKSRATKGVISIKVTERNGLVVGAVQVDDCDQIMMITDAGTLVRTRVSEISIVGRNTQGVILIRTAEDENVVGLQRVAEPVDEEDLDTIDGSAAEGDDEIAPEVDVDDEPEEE
Sequence of S. aureus GyrB ATPase (P0A0K8 whole entry): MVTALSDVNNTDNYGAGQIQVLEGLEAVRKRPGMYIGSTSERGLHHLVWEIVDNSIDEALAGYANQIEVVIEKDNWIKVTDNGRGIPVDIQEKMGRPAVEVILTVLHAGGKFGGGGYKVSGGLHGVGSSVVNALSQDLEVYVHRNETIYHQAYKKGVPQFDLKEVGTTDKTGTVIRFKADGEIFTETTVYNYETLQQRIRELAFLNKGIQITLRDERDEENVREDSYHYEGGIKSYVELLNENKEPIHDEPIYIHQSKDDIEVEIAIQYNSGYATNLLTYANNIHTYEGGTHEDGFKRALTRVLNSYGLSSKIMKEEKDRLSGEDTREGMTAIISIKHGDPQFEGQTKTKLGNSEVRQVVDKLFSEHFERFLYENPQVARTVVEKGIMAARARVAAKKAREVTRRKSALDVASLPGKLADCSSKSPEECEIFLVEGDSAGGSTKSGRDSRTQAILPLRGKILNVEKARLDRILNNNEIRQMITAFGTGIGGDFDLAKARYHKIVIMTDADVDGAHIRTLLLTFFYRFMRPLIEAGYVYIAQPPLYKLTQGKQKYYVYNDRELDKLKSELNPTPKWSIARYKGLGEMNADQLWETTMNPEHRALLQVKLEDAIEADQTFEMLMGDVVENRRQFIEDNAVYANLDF
Assay type: biochemical
Protocol: E. coli GyrB ATPase Inhibition Activity: Compounds can be tested for inhibition of E. coli GyrB ATPase activity using an ammonium molybdate/malachite green-based phosphate detection assay (Lanzetta, P. A., L. J. Alvarez, P. S. Reinach, and O. A. Candia, 1979, 100: 95-97). Assays can be performed in multiwell plates in 30 μl reactions containing: 50 mM Hepes buffer pH 7.5, 75 mM ammonium acetate, 8.0 mM magnesium chloride, 0.5 mM ethylenediaminetetraacetic acid, 5% glycerol, 1 mM 1,4-Dithio-DL-threitol, 200 nM bovine serum albumin, 1.6 μg/ml sheared salmon sperm DNA, 400 pM E. coli GyrA, 400 pM E. coli GyrB, 250 μM ATP, and compound in dimethylsulfoxide. Reactions can be quenched with 30 μl of ammonium molybdate/malachite green detection reagent containing 1.2 mM malachite green hydrochloride, 8.5 mM ammonium molybdate tetrahydrate, and 1 M hydrochloric acid. Plates can be read in an absorbance plate reader at 650 nm and percent inhibition values are calculated using dimethylsulfoxide (2%)-containing reactions as 0% inhibition and EDTA-containing (2.4 μM) reactions as 100% inhibition controls. An IC50 measurement of compound potency for each compound can be determined from reactions performed in the presence of 10 different compound concentrations. E. coli Topoisomerase IV ATPase Inhibition Activity: Compounds can be tested for inhibition of E. coli topoisomerase IV ATPase activity as described above for E. coli GyrB except the 30 μl reactions contained the following: 20 mM TRIS buffer pH 8, 50 mM ammonium acetate, 8 mM magnesium chloride, 5% glycerol, 5 mM 1,4-Dithio-DL-threitol, 0.005% Brij-35, 5 μg/ml sheared salmon sperm DNA, 500 pM E. coli ParC, 500 pM E. coli ParE, 160 μM ATP, and compound in dimethylsulfoxide. An IC50 measurement of compound potency for each compound can be determined from reactions performed in the presence of 10 different compound concentrations. S. aureus GyrB ATPase Inhibition Activity: Compounds may be tested for inhibition of S. aureus GyrB ATPase activity using an ammonium molybdate/malachite green-based phosphate detection assay (Lanzetta, P. A., L. J. Alvarez, P. S. Reinach, and O. A. Candia, 1979, 100: 95-97). Assays can be performed in multiwell plates in 30 μl reactions containing: 50 mM Hepes buffer pH 7.5, 75 mM ammonium acetate, 8.0 mM magnesium chloride, 0.5 mM ethylenediaminetetraacetic acid, 5% glycerol, 1.0 mM 1,4-Dithio-DL-threitol, 200 nM bovine serum albumin, 1.0 μg/ml sheared salmon sperm DNA, 250 pM E. coli GyrA, 250 pM S. aureus GyrB, 250 μM ATP, and compound in dimethylsulfoxide. Reactions can be quenched with 30 μl of ammonium molybdate/malachite green detection reagent containing 1.2 mM malachite green hydrochloride, 8.5 mM ammonium molybdate tetrahydrate, and 1 M hydrochloric acid. Plates can be read in an absorbance plate reader at 650 nm and percent inhibition values can be calculated using dimethylsulfoxide (2%)-containing reactions as 0% inhibition and EDTA-containing (2.4 μM) reactions as 100% inhibition controls. An IC50 measurement of compound potency for each compound can be determined from reactions performed in the presence of 10 different compound concentrations.
Compounds of the invention were tested in an assay substantially similar to the assay described above for measuring the inhibition of S. aureus GyrB ATPase. Percent inhibition of S. aureus GyrB ATPase at a compound concentration of 1 μM (unless otherwise noted) is disclosed in the following table: […]
In the case of `Cc1[nH]c(C(=O)N[C@@H]2CCN(c3nc(-c4cnc(NCCN5CCCC5=O)cn4)c(C(=O)O)s3)C[C@@H]2C)c(Cl)c1Cl` [Example 169, 2-[(3S,4R)-4-{[(3,4-dichloro-5-methyl-1H-pyrrol-2-yl)carbonyl]amino}-3-methylpiperidin-1-yl]-4-(5-{[2-(2-oxopyrrolidin-1-yl)ethyl]amino}pyrazin-2-yl)-1,3-thiazole-5-carboxylic acid], the inhibition at 1 µM is reported as 102%. `COCCNc1cnc(-c2nc(N3CC[C@@H](NC(=O)c4[nH]c(C)c(Cl)c4Cl)[C@@H](C)C3)sc2C(=O)O)cn1` [Example 170, 2-[(3S,4R)-4-{[(3,4-dichloro-5-methyl-1H-pyrrol-2-yl)carbonyl]amino}-3-methylpiperidin-1-yl]-4-{5-[(2-methoxyethyl)amino]pyrazin-2-yl}-1,3-thiazole-5-carboxylic acid] gave an inhibition at 1 µM of 119%. With `Cc1[nH]c(C(=O)N[C@@H]2CCN(c3nc(-c4cnc(NCCN5CCOCC5)cn4)c(C(=O)O)s3)C[C@@H]2C)c(Cl)c1Cl` [Example 171, 2-[(3S,4R)-4-{[(3,4-dichloro-5-methyl-1H-pyrrol-2-yl)carbonyl]amino}-3-methylpiperidin-1-yl]-4-(5-{[2-(morpholin-4-yl)ethyl]amino}pyrazin-2-yl)-1,3-thiazole-5-carboxylic acid] the inhibition at 1 µM was 101%. `COCC(COC)Nc1cnc(-c2nc(N3CC[C@@H](NC(=O)c4[nH]c(C)c(Cl)c4Cl)[C@@H](C)C3)sc2C(=O)O)cn1` [Example 172, 2-[(3S,4R)-4-{[(3,4-dichloro-5-methyl-1H-pyrrol-2-yl)carbonyl]amino}-3-methylpiperidin-1-yl]-4-{5-[(1,3-dimethoxypropan-2-yl)amino]pyrazin-2-yl}-1,3-thiazole-5-carboxylic acid] showed an inhibition at 1 µM of 109%. `Cc1[nH]c(C(=O)N[C@@H]2CCN(c3nc(-c4cnc(NCCN5CCNC5=O)cn4)c(C(=O)O)s3)C[C@@H]2C)c(Cl)c1Cl` [Example 173, 2-[(3S,4R)-4-{[(3,4-dichloro-5-methyl-1H-pyrrol-2-yl)carbonyl]amino}-3-methylpiperidin-1-yl]-4-(5-{[2-(2-oxoimidazolidin-1-yl)ethyl]amino}pyrazin-2-yl)-1,3-thiazole-5-carboxylic acid] showed an inhibition at 1 µM of 104%. Molecule `Cc1[nH]c(C(=O)N[C@@H]2CCN(c3nc(-c4cnc(NCCN(C)C)cn4)c(C(=O)O)s3)C[C@@H]2C)c(Cl)c1Cl` [Example 174, 2-[(3S,4R)-4-{[(3,4-dichloro-5-methyl-1H-pyrrol-2-yl)carbonyl]amino}-3-methylpiperidin-1-yl]-4-(5-{[2-(dimethylamino)ethyl]amino}pyrazin-2-yl)-1,3-thiazole-5-carboxylic acid] has an inhibition at 1 µM of 102%. In the case of `Cc1[nH]c(C(=O)N[C@@H]2CCN(c3nc(-c4cnc(NCCN5CCN(C)CC5)cn4)c(C(=O)O)s3)C[C@@H]2C)c(Cl)c1Cl` [Example 175, 2-[(3S,4R)-4-{[(3,4-dichloro-5-methyl-1H-pyrrol-2-yl)carbonyl]amino}-3-methylpiperidin-1-yl]-4-(5-{[2-(4-methylpiperazin-1-yl)ethyl]amino}pyrazin-2-yl)-1,3-thiazole-5-carboxylic acid], the inhibition at 1 µM is reported as 106%. `Cc1[nH]c(C(=O)N[C@@H]2CCN(c3nc(-c4cnc(N5CCN(CC(C)C)CC5)cn4)c(C(=O)O)s3)C[C@@H]2C)c(Cl)c1Cl` [Example 176, 2-[(3S,4R)-4-{[(3,4-dichloro-5-methyl-1H-pyrrol-2-yl)carbonyl]amino}-3-methylpiperidin-1-yl]-4-{5-[4-(2-methylpropyl)piperazin-1-yl]pyrazin-2-yl}-1,3-thiazole-5-carboxylic acid] gave an inhibition at 1 µM of 108%. `Cc1[nH]c(C(=O)N[C@@H]2CCN(c3nc(-c4cnc(N5CCN(CC6CCCN(C)C6)CC5)cn4)c(C(=O)O)s3)C[C@@H]2C)c(Cl)c1Cl` (stereo partly drawn) [Example 177, 2-[(3S,4R)-4-{[(3,4-dichloro-5-methyl-1H-pyrrol-2-yl)carbonyl]amino}-3-methylpiperidin-1-yl]-4-(5-{4-[(1-methylpiperidin-3-yl)methyl]piperazin-1-yl}pyrazin-2-yl)-1,3-thiazole-5-carboxylic acid] was tested, and the inhibition at 1 µM was 107%. Work on `Cc1[nH]c(C(=O)N[C@@H]2CCN(c3nc(-c4cnc(N5CCN(CC6CCCCC6)CC5)cn4)c(C(=O)O)s3)C[C@@H]2C)c(Cl)c1Cl` [Example 178, 4-{5-[4-(cyclohexylmethyl)piperazin-1-yl]pyrazin-2-yl}-2-[(3S,4R)-4-{[(3,4-dichloro-5-methyl-1H-pyrrol-2-yl)carbonyl]amino}-3-methylpiperidin-1-yl]-1,3-thiazole-5-carboxylic acid] yielded an inhibition at 1 µM of 102%. `CCC(CC)N1CCN(c2cnc(-c3nc(N4CC[C@@H](NC(=O)c5[nH]c(C)c(Cl)c5Cl)[C@@H](C)C4)sc3C(=O)O)cn2)CC1` [Example 179, 2-[(3S,4R)-4-{[(3,4-dichloro-5-methyl-1H-pyrrol-2-yl)carbonyl]amino}-3-methylpiperidin-1-yl]-4-{5-[4-(pentan-3-yl)piperazin-1-yl]pyrazin-2-yl}-1,3-thiazole-5-carboxylic acid] showed an inhibition at 1 µM of 104%. In the case of `CCN(CC)CCN1CCN(c2cnc(-c3nc(N4CC[C@@H](NC(=O)c5[nH]c(C)c(Cl)c5Cl)[C@@H](C)C4)sc3C(=O)O)cn2)CC1` [Example 180, 2-[(3S,4R)-4-{[(3,4-dichloro-5-methyl-1H-pyrrol-2-yl)carbonyl]amino}-3-methylpiperidin-1-yl]-4-(5-{4-[2-(diethylamino)ethyl]piperazin-1-yl}pyrazin-2-yl)-1,3-thiazole-5-carboxylic acid], the inhibition at 1 µM is reported as 103%. `Cc1[nH]c(C(=O)N[C@@H]2CCN(c3nc(-c4cnc(N5CCN[C@H](C)C5)cn4)c(C(=O)O)s3)C[C@@H]2C)c(Cl)c1Cl` [Example 181, 2-[(3S,4R)-4-{[(3,4-dichloro-5-methyl-1H-pyrrol-2-yl)carbonyl]amino}-3-methylpiperidin-1-yl]-4-{5-[(3R)-3-methylpiperazin-1-yl]pyrazin-2-yl}-1,3-thiazole-5-carboxylic acid] was tested, and the inhibition at 1 µM was 101%. `Cc1[nH]c(C(=O)N[C@@H]2CCN(c3nc(-c4cnc(N5CCN(CCO)CC5)cn4)c(C(=O)O)s3)C[C@@H]2C)c(Cl)c1Cl` [Example 182, 2-[(3S,4R)-4-{[(3,4-dichloro-5-methyl-1H-pyrrol-2-yl)carbonyl]amino}-3-methylpiperidin-1-yl]-4-{5-[4-(2-hydroxyethyl)piperazin-1-yl]pyrazin-2-yl}-1,3-thiazole-5-carboxylic acid] gave an inhibition at 1 µM of 117%. For `Cc1[nH]c(C(=O)N[C@@H]2CCN(c3nc(-c4cnc(N5CCN(CC6CCCO6)CC5)cn4)c(C(=O)O)s3)C[C@@H]2C)c(Cl)c1Cl` (stereo partly drawn) [Example 183, 2-[(3S,4R)-4-{[(3,4-dichloro-5-methyl-1H-pyrrol-2-yl)carbonyl]amino}-3-methylpiperidin-1-yl]-4-{5-[4-(tetrahydrofuran-2-ylmethyl)piperazin-1-yl]pyrazin-2-yl}-1,3-thiazole-5-carboxylic acid], the inhibition at 1 µM was 116%. `CO[C@H]1CN(c2nc(-c3nccc(N4CCCCC4)n3)c(C(=O)O)s2)CC[C@H]1NC(=O)c1[nH]c(C)c(Cl)c1Cl` [Example 189, 2-[(3S,4R)-4-{[(3,4-dichloro-5-methyl-1H-pyrrol-2-yl)carbonyl]amino}-3-methoxypiperidin-1-yl]-4-[4-(piperidin-1-yl)pyrimidin-2-yl]-1,3-thiazole-5-carboxylic acid] was tested, and the inhibition at 1 µM was 106%. Molecule `CO[C@H]1CN(c2nc(-c3nccc(N4CCOCC4)n3)c(C(=O)O)s2)CC[C@H]1NC(=O)c1[nH]c(C)c(Cl)c1Cl` [Example 190, 2-[(3S,4R)-4-{[(3,4-dichloro-5-methyl-1H-pyrrol-2-yl)carbonyl]amino}-3-methoxypiperidin-1-yl]-4-[4-(morpholin-4-yl)pyrimidin-2-yl]-1,3-thiazole-5-carboxylic acid] has an inhibition at 1 µM of 100%.
